{
  "source": "patent US20010051374A1",
  "about": "“HIGH […] MO[…]” (priority 1997, published 2001)",
  "tested_on": "293 cells",
  "test": "Coamatic Factor VIII assay of supernatants of 293 cells infected with rAAV",
  "type": "cell-based, human",
  "design": "dose or concentration left out as unconfirmed",
  "conditions": "etoposide added to medium of cells co-infected with rAAV-80L and rAAV-90H",
  "experimental": "The heavy and light chain constructs, pKm201-80L and pKm201-90H, were packaged following standard procedures for the production of rAAV (Zhou et al. (1994) J. Exp. Med. 179:1867-1875). rAAV was purified as described (Wang et al. (1995) Proc. Natl. Acad. Sci. USA 92:12416-12420) and used to infect 293 cells plated in 6-well plates. Supernatants of infected cells were collected 48 h after infection and assayed for biologically active factor VIII by Coamatic Factor VIII (KabiVitrum, Stockholm), following the manufacturer's instructions. Normal human plasma (George King Bio-Medical, Inc., Overland Park, Kans.) was used to generate a standard curve. Cells were infected at a multiplicity of infection (MOI) of 6000 rAAV particles per cell. The experiment was done both with and without the addition of etoposide ([…]) to the medium. […] The amount of factor VIII was increased in the presence of etoposide.",
  "data": [
    {"smiles": "COc1cc([C@@H]2c3cc4c(cc3[C@@H](O[C@@H]3O[C@@H]5CO[C@@H](C)O[C@H]5[C@H](O)[C@H]3O)[C@H]3COC(=O)[C@H]23)OCO4)cc(OC)c1O", "note": "[etoposide]", "values": [
      {"measurement": "amount of factor VIII", "result": "increased"}
    ]}
  ]
}
